As usually defined, the AUC(0-inf) is the area under the concentration-time curve extrapolated to infinity. A lower AUC(0-inf) goes with less exposure. For orientation: AUC(0-t) means the area under the concentration-time curve up to a stated or last time point. By Cmax is commonly meant the maximum level reached in the sampled fluid or tissue. One may read the Tmax as the time at which the peak concentration occurs. The EC50 is the concentration needed to bring the measured effect to its halfway point. One may read the Emax as the size of the effect at its maximum, as opposed to the concentration needed. By Ki is commonly meant the equilibrium dissociation constant of an inhibitor or competing ligand from its target.

One series can be described thus: in vivo. As to conditions: mouse.
In another series the target is hD2 receptors (Homo sapiens (Human), UniProt P14416). In words: D2 mediated cAMP GloSensor assay. On cAMP (GloSensor) activity in words (merged EC50/Emax cell): key: neutral: Neutral ligands are either antagonists or are inactive. The format is cell-based. As to conditions: for EC50: HEK293T, isoproterenol-stimulated cAMP; for Emax: normalized to quinpirole, negative = inverse agonist, read-out: cAMP (GloSensor) Emax.
Series [1] deals with T1, D2 receptors (Homo sapiens (Human), UniProt P14416). In words: D2 β-arrestin recruitment (Tango) assay. As to conditions: for Emax: normalized to quinpirole (100%). The format is cell-based. Here is the method: The next day, cells were plated in white, clear-bottom, 384-well plates (Greiner, 10,000 cells/well, 50 μl/well) in DMEM containing 1% dialyzed fetal bovine serum. […] Data were normalized to vehicle (0%) and quinpirole (100%) controls and regressed using the sigmoidal dose-response function built into GraphPad Prism 4.0.
Target sequence in this assay (P14416 whole entry, looked up): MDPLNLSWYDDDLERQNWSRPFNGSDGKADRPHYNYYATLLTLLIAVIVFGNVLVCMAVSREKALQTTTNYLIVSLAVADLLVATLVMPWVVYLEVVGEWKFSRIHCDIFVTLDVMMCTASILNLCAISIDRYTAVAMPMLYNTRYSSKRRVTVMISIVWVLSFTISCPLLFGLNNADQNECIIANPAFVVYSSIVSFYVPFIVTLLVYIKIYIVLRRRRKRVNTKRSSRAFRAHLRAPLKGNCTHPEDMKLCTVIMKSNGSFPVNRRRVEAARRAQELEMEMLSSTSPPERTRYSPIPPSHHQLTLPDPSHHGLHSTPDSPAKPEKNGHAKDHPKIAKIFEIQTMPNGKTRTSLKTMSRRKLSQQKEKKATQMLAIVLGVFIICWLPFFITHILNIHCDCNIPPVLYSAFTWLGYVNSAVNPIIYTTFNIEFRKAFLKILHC
(Recruitment of arrestin is a read-out of receptor activation apart from second messengers.)

Series [2] addresses T1, D2 receptors. Kind of series: CHO-D2 radioligand binding assay ([3H]N-methylspiperone competition). As to conditions: CHO-D2 membranes, [3H]N-methylspiperone; read-out: D2 Binding Ki ± SEM.
Target sequence in this assay (P14416 whole entry): as the sequence (P14416 whole entry, looked up) above
Setting [3] is: HTLA cells, read-out: β-arrestin (Tango) EC50.

SMILES strings stand for the structures. Like-named read-outs stand apart in the source and are kept apart here.

Sequence of hD2 receptors (P14416 whole entry): as the sequence (P14416 whole entry, looked up) above

For the molecule `O=C1CCc2ccc(OCCCCN3CCN(c4cccc(Cl)c4Cl)CC3)cc2N1` [Aripiprazole, aripiprazole, reference compound], in the series “in vivo” (brain), the AUC(0-inf) was 1180 ng·h/mL, the AUC(0-t) is 1100 ng·h/mL, the concentration peaked (Cmax) at 166 ng/mL and the Tmax stood at 30 min. In the series “in vivo” (plasma), the AUC(0-inf) came out at 445 ng·h/mL, the AUC(0-t) was found to be 431 ng·h/mL, the highest level (Cmax) was 75.6 ng/mL and the Tmax came to 15 min.
`COc1ccccc1N1CCCN(CCCCOc2ccc3c(c2)NC(=O)CC3)CC1` [Compound 9, 7-(4-(4-(2-methoxyphenyl)-1,4-diazepan-1-yl)butoxy)-3,4-dihydroquinolin-2(1H)-one]: the EC50 at hD2 receptors was found to be 163 nM; at D2 receptors [1] (setting [3]), 4.6 nM. Also, the Emax is -63% on hD2 receptors and 26% on D2 receptors [1]. The inhibition constant (Ki) at D2 receptors [2] came out at 4 nM.
In the case of `COc1ccccc1N1CCCN(CCCCOc2ccc3ccc(=O)[nH]c3c2)CC1` [Compound 10, 7-(4-(4-(2-methoxyphenyl)-1,4-diazepan-1-yl)butoxy)quinolin-2(1H)-one], at D2 receptors [1], the Emax amounted to 16%.
On to `COc1ccccc1N1CCCN(CCCCOc2ccc3c(n2)NC(=O)CC3)CC1` [Compound 11, 7-(4-(4-(2-methoxyphenyl)-1,4-diazepan-1-yl)butoxy)-3,4-dihydro-1,8-naphthyridin-2(1H)-one], for which the Emax on hD2 receptors was -118%; on D2 receptors [1], 21%.
Consider `CCOc1ccccc1N1CCCN(CCCCOc2ccc3c(c2)NC(=O)CC3)CC1` [Compound 12, 7-(4-(4-(2-ethoxyphenyl)-1,4-diazepan-1-yl)butoxy)-3,4-dihydroquinolin-2(1H)-one], for which the “cAMP (GloSensor) activity in words (merged EC50/Emax cell)” value (“cAMP … (merged EC50/Emax cell)” below) on hD2 receptors is reported as “neutral”. Moreover, the EC50 at D2 receptors [1] (setting [3]) was found to be 4.3 nM. Also, the Emax at D2 receptors [1] was 41%. Further, the inhibitory constant (Ki) at D2 receptors [2] was 4.1 ± 0.2 nM.
On the same counts, the results for `CCOc1ccccc1N1CCCN(CCCCOc2ccc3c(n2)NC(=O)CC3)CC1` [Compound 13, 7-(4-(4-(2-ethoxyphenyl)-1,4-diazepan-1-yl)butoxy)-3,4-dihydro-1,8-naphthyridin-2(1H)-one] are “neutral”, 4 nM, 43% and 4.4 ± 0.3 nM.
Turning to `CCOc1ccccc1N1CCCN(CCCCOc2ccc3ccc(=O)[nH]c3c2)CC1` [Compound 14, 7-(4-(4-(2-ethoxyphenyl)-1,4-diazepan-1-yl)butoxy)quinolin-2(1H)-one], the Emax at D2 receptors [1] amounted to 58%.
Turning to `CC(C)Oc1ccccc1N1CCCN(CCCCOc2ccc3c(c2)NC(=O)CC3)CC1` [Compound 16, 7-(4-(4-(2-isopropoxyphenyl)-1,4-diazepan-1-yl)butoxy)-3,4-dihydroquinolin-2(1H)-one], the “cAMP … (merged EC50/Emax cell)” value at hD2 receptors was “neutral”. Besides, the EC50 on D2 receptors [1] (setting [3]) stood at 4.2 nM. The Emax on D2 receptors [1] is 53%. In addition, the Ki on D2 receptors [2] is 0.87 ± 0.04 nM.
For the molecule `CC(C)Oc1ccccc1N1CCCN(CCCCOc2ccc3c(n2)NC(=O)CC3)CC1` [Compound 17, 7-(4-(4-(2-isopropoxyphenyl)-1,4-diazepan-1-yl)butoxy)-3,4-dihydro-1,8-naphthyridin-2(1H)-one], the EC50 amounted to 0.2 nM on hD2 receptors and 4.6 nM on D2 receptors [1] (setting [3]). Further, the Emax at hD2 receptors amounted to 18%; at D2 receptors [1] it was 56%. Moreover, on D2 receptors [2], the Ki is 1.29 ± 0.03 nM.
On the same counts, the results for `CC(C)Oc1ccccc1N1CCCN(CCCCOc2ccc3ccc(=O)[nH]c3c2)CC1` [Compound 18, 7-(4-(4-(2-isopropoxyphenyl)-1,4-diazepan-1-yl)butoxy)quinolin-2(1H)-one] are 0.1 nM, 4.2 nM, 32%, 58% and 0.93 ± 0.03 nM.
On to `O=C1NCCc2ccc(OCCCCN3CCN(c4cccc(Cl)c4Cl)CC3)cc21` [Compound 25, 7-(4-(4-(2,3-dichlorophenyl)piperazin-1-yl)butoxy)-3,4-dihydroisoquinolin-1(2H)-one], for which, on hD2 receptors, the EC50 amounted to 3700 nM and the Emax was -74%. Moreover, at D2 receptors [1], the “β-arrestin (Tango) % activ at 1 μM” value is reported as 12% and the Emax was 55%. The 50% effective concentration (EC50) at D2 receptors [1] (setting [3]) worked out at 18 nM. The inhibition constant Ki at D2 receptors [2] came out at 18 ± 3 nM.
On to `O=C1CCc2ccc(OCC3CCC(CN4CCN(c5cccc(Cl)c5Cl)CC4)CC3)cc2N1` (centres unmarked) [Compound 26, 7-((4-((4-(2,3-dichlorophenyl)piperazin-1-yl)methyl)cyclohexyl)methoxy)-3,4-dihydroquinolin-2(1H)-one], for which the EC50 worked out at 46000 nM at hD2 receptors and 2100 nM on D2 receptors [1] (setting [3]). Further, the Emax on hD2 receptors was -25%; at D2 receptors [1], 51%. For the same molecule, the “β-arrestin (Tango) % activ at 1 μM” value at D2 receptors [1] is reported as 6%. Moreover, the Ki at D2 receptors [2] worked out at 145 ± 22 nM.
As for `Clc1cccc(N2CCN(CCCCOc3ccc4cn[nH]c4c3)CC2)c1Cl` [Compound 28, 6-(4-(4-(2,3-dichlorophenyl)piperazin-1-yl)butoxy)-1H-indazole], at hD2 receptors, the EC50 is 5.7 nM and the Emax is -29%. For the same molecule, on D2 receptors [1], the “β-arrestin (Tango) % activ at 1 μM” value was 18% and the Emax stood at 65%. Also, the EC50 at D2 receptors [1] (setting [3]) worked out at 92 nM. For the same molecule, the inhibition constant (Ki) on D2 receptors [2] is 66 ± 10 nM.
Regarding `O=C1CCc2ccc(Oc3ccc(CN4CCN(c5cccc(Cl)c5Cl)CC4)cc3)cc2N1` [Compound 31, 7-(4-((4-(2,3-dichlorophenyl)piperazin-1-yl)methyl)phenoxy)-3,4-dihydro quinolin-2(1H)-one], the results for the EC50 on hD2 receptors and at D2 receptors [1] (setting [3]) were 5.7 nM and 399 nM, respectively. Further, the Emax on hD2 receptors is -47%; on D2 receptors [1] it was 49%. Further, the “β-arrestin (Tango) % activ at 1 μM” value at D2 receptors [1] came to 16%. Further, the Ki at D2 receptors [2] was found to be 108 ± 18 nM.
Turning to `O=C1NCCc2ccc(OCCCN3CCN(c4cccc(Cl)c4Cl)CC3)cc21` [Compound 32, 7-(3-(4-(2,3-dichlorophenyl)piperazin-1-yl)propoxy)-3,4-dihydroisoquinolin-1(2H)-one], the “cAMP … (merged EC50/Emax cell)” value on hD2 receptors was “neutral”. In addition, on D2 receptors [1], the “β-arrestin (Tango) % activ at 1 μM” value is on record as 44% and the Emax was 83%. Also, the EC50 at D2 receptors [1] (setting [3]) was found to be 30 nM. At D2 receptors [2], the Ki was 18 ± 2 nM.
`O=c1[nH]c2ccc(OCCCN3CCN(c4cccc(Cl)c4Cl)CC3)cc2[nH]1` [Compound 34, 5-(3-(4-(2,3-dichlorophenyl)piperazin-1-yl)propoxy)-1H-benzo[d]imidazol-2(3H)-one]: on hD2 receptors, the concentration for a half-maximal effect (EC50) amounted to 512 nM and the Emax came to 25%. At D2 receptors [1], the EC50 turned out to be 52 nM, the “β-arrestin (Tango) % activ at 1 μM” value is 36% and the Emax is 78%. In addition, on D2 receptors [2], the Ki was 25 ± 3 nM.
As to `O=c1[nH]c2ccc(OCCCCN3CCN(c4cccc(Cl)c4Cl)CC3)cc2[nH]1` [Compound 35], at hD2 receptors, the “cAMP … (merged EC50/Emax cell)” value is on record as “neutral”. Moreover, the “β-arrestin (Tango) % activ at 1 μM” value on D2 receptors [1] is on record as 19%. In addition, the EC50 at D2 receptors [1] (setting [3]) is 16 nM. Besides, the Ki at D2 receptors [2] is 15 ± 3 nM.
Consider `COc1ccccc1N1CCN(CCCCOc2ccc3c(n2)NC(=O)CC3)CC1` [Compound 37], for which, on hD2 receptors, the EC50 was 11 nM and the Emax stood at 17%. Further, at D2 receptors [1], it took 1 nM to reach a half-maximal effect (EC50) and the Emax amounted to 67%. Also, the Ki on D2 receptors [2] was determined as 1.7 ± 0.1 nM.

Source of the values: patent publication US9156822B2, “Functionally selective ligands of dopamine D2 receptors” (The University of North Carolina at Chapel Hill, priority 2010, dated 2015).
